In ChEMBL document CHEMBL3390830, “Targeting epigenetic modifiers: Inhibitors of histone methyltransferases” (Medchemcomm, 2010):

Key:
[1] = molecular target: T1, Histone-lysine N-methyltransferase EHMT2 (Homo sapiens, UniProt Q96KQ7); experiment: Inhibition of G9a (unknown origin)
T1 sequence (Q96KQ7 whole entry): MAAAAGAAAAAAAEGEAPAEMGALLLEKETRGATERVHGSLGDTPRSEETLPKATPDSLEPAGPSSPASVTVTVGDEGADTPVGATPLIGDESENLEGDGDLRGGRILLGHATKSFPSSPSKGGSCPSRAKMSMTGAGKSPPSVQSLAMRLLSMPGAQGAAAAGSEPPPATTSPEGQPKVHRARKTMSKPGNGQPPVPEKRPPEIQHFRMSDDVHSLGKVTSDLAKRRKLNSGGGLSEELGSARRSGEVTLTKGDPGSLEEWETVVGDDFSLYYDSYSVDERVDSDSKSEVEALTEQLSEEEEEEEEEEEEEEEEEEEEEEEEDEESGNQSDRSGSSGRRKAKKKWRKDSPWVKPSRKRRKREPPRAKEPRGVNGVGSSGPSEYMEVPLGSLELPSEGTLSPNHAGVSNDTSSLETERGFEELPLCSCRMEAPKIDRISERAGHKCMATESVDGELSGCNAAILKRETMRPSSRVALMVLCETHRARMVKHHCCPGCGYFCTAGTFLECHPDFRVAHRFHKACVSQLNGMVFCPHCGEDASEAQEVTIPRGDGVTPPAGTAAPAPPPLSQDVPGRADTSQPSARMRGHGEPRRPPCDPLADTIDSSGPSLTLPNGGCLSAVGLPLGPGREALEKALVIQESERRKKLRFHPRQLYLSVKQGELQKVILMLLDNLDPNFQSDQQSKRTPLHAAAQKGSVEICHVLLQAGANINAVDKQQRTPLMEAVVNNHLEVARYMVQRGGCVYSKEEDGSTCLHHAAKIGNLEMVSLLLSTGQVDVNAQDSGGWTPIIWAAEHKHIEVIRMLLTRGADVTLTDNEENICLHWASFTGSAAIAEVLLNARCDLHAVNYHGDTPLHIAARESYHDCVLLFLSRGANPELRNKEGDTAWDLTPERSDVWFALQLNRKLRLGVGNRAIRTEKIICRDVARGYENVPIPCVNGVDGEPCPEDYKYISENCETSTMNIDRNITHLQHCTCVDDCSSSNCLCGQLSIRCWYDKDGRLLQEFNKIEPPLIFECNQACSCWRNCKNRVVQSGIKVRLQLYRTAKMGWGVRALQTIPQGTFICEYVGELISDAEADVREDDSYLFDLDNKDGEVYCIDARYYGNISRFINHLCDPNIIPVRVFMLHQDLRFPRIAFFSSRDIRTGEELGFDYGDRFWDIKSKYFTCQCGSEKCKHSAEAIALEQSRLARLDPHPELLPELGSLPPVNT

[2] = molecular target: Histone-lysine N-methyltransferase Su(var)3-9 (Drosophila melanogaster, UniProt P45975); experiment: Inhibition of Drosophila melanogaster Su(var)3-9
Chain of Histone-lysine N-methyltransferase Su(var)3-9 (P45975 whole entry): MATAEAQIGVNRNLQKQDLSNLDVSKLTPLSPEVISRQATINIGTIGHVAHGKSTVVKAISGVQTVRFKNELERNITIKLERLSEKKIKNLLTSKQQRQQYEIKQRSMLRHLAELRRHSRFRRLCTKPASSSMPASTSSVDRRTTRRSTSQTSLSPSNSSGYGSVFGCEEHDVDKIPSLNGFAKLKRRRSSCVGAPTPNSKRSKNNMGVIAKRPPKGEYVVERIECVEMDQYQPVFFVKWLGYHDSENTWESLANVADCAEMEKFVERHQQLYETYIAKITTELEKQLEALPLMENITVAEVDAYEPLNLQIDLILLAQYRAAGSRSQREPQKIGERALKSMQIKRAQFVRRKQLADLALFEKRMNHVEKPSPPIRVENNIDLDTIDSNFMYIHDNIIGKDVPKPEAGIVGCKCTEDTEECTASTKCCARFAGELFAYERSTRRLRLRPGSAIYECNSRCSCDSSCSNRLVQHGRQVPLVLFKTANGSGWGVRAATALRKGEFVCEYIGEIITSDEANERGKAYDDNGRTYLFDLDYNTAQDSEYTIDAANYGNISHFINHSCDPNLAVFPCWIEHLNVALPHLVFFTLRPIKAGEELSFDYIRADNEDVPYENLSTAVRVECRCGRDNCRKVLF

[3] = molecular target: T2, Protein arginine N-methyltransferase 1 (Homo sapiens, UniProt Q99873); experiment: Inhibition of recombinant human GST-tagged PRMT1 assessed as inhibition of histone methylation
T2 sequence (Q99873 whole entry): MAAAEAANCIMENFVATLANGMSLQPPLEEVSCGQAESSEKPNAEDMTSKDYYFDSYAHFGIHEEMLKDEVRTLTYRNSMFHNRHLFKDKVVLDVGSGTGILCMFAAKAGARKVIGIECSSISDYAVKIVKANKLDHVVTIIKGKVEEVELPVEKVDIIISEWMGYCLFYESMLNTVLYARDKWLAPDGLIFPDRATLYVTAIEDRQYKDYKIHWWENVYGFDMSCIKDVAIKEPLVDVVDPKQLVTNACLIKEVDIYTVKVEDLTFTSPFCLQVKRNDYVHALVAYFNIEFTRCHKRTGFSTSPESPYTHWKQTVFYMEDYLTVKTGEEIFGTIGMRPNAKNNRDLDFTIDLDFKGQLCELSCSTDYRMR

[4] = molecular target: T1, Histone-lysine N-methyltransferase EHMT2; experiment: Inhibition of G9a (685 to 1000) (unknown origin) expressed in Escherichia coli BL21 assessed as reduction of H3K9me2 level by DELFIA assay
[5] = molecular target: T2, Protein arginine N-methyltransferase 1; experiment: Inhibition of GST-fused PRMT1 (unknown origin) expressed in Escherichia coli BL21 assessed as reduction of asymmetric H4R3me2 level by DELFIA assay
[6] = molecular target: T2, Protein arginine N-methyltransferase 1; experiment: Inhibition of human PRMT1 using GST-tagged Npl3 as substrate preincubated for 15 mins followed by enzyme addition measured after 1 hr by colorimetric assay
[7] = molecular target: T3, NAD-dependent protein deacetylase sirtuin-1 (Homo sapiens, UniProt Q96EB6); experiment: Inhibition of recombinant human N-terminal GST-tagged full length SIRT1 expressed in Escherichia coli BL21(DE3) using ZMAL as substrate after 4 hrs by homogeneous fluorescent deacetylase assay
T3 sequence (Q96EB6 whole entry): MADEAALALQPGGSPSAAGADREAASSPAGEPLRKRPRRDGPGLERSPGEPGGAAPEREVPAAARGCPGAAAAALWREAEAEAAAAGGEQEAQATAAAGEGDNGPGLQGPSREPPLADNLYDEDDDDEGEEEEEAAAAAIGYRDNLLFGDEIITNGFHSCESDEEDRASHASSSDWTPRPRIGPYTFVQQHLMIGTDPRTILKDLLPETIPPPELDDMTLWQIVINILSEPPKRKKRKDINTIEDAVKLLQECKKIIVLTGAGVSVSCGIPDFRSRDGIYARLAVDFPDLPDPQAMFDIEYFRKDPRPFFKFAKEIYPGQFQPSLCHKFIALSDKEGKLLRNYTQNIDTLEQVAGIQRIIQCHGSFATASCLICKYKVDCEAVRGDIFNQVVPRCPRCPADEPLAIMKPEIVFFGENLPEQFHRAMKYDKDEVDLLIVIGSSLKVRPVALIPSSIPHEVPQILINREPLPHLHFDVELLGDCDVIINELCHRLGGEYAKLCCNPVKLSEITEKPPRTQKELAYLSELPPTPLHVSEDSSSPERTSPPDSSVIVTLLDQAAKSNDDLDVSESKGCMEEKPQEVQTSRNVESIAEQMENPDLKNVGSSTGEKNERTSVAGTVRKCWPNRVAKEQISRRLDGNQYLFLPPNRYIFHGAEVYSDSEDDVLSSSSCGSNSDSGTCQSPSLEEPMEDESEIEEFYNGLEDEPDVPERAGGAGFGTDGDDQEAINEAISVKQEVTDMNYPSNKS

SMILES: CN1C(=O)[C@@]23C[C@]4([C@]56C[C@@]78SS[C@@](CO)(C(=O)N7[C@H]5Nc5ccccc56)N(C)C8=O)c5ccccc5N[C@@H]4N2C(=O)[C@]1(CO)SS3 [CHAETOCIN]
- IC50 [1]: 2.5 µM
- IC50 [2]: 0.8 µM

SMILES: COc1ccc(/N=N/c2c(S(=O)(=O)O)cc3cc(Cc4nc(Cl)nc(Cl)n4)ccc3c2O)cc1
- IC50 [3]: 4 µM

SMILES: COc1ccc(C(=O)Oc2ccc(CCn3c(NC(=O)c4ccc(C(F)(F)F)cc4)nc4cc(C(=O)O)ccc43)cc2)cc1
- IC50 [4]: 5 µM
- IC50 [5]: 6 µM

SMILES: O=C1OC2(c3ccccc31)c1cc(Br)c(O)c(Br)c1Oc1c2cc(Br)c(O)c1Br [EOSIN]
- IC50 [6]: 1 µM

SMILES: O=C(Nc1ccc2c(O)cc(S(=O)(=O)O)cc2c1)Nc1ccc2c(O)cc(S(=O)(=O)O)cc2c1
- IC50 [7]: 32 µM
